Measurements from patent publication US5086054A, “Novel arylcycloalkanepolyalkylamines” (SRI International, priority 1990, dated 1992).
“Also recorded” adds a separate entry of the source. Read-outs that look alike come from different tables or passages of the source.

Assays:
σ receptors = details: literature; cited from earlier work
SIGMA RECEPTOR = target: T1, SIGMA RECEPTOR (Cavia porcellus, UniProt Q60492); experiment: Sigma receptor binding assay ([3H]-d-SKF-10,047 displacement, brain membranes); design: species or system guinea-pig (male Hartley)
T1 construct: Two milliter aliquots of the brain membrane preparation, containing 1.7 mg of protein; tissue Pel-Freeze (Rogers, Arkansas); host or cells: guinea-pig brains plus cerebella, membranes
Method: (§1) This example illustrates testing of compounds in receptor binding assays.
(§2) Frozen brains from male Hartley guinea-pigs were obtained from Pel-Freeze (Rogers, Arkansas).
(§3) The brains plus cerebella were homogenized in 10 volumes (v/w) of 0.1M, pH 7.4, ice-cold Tris-HCl buffer with a Brinkmann polytron at setting 4 for 20 seconds. The homogenates were centrifuged at 20,000×g for 20 minutes at 4° C. The pellets were suspended in 10 volumes of ice-cold water and, after sitting on ice for 10 minutes, were centrifuged 30 minutes at 20,000×g at 4° C. The resulting pellets were resuspended in the above Tris buffer in ratio 1:100 (w/v) for σ receptor assays or in 5 mM Tris-HCl having pH 7.4, for PCP receptor assays. The final suspension was homogenized with a dounce glass-glass tissue grinder Wheaton "200", at small clearance (B), with three strokes before use. Two milliter aliquots of the brain membrane preparation, containing 1.7 mg of protein, were incubated in quadruplicate for one hour at 23° C. with competing mixture of ligand and radioligand. For σ receptors, [^3 H]-d-SKF-10,047, 2 nM was used. For PCP receptors, [^3 H] TCP [^3 H]-1-[1-(2-thienyl)cyclohexyl]piperidine), 1 nM was used. The nonspecific bindings were defined by 0.1 mM d-SKF-10,047 and 0.1 mM phencyclidine respectively for σ and PCP receptors. After incubation, free ligand was separated from bound ligand by rapid filtration through Whatman GF/C filters. The filters had been soaked before use in isoamyl alcohol-saturated water to prevent nonspecific [^3 H]-d-SKF-10,047 binding to the filter. In the PCP receptor assay, the filter was soaked in 0.5% polyethylenimine to reduce the filter binding of [^3 H]-TCP. After filtration, the trapped tissue was washed three times with 4 ml aliquots of 0.1 M ice-cold Tris buffer at pH 7.4 for σ receptors and 5 mM, ice-cold Tris buffer pH 7.4 for PCP receptors. The filters were transferred to 5 ml of liquid scintillation fluid and the retained radioactivity was measured by liquid scintillation spectrometry.

PCP RECEPTOR = experiment: PCP receptor binding assay ([3H]-TCP displacement, brain membranes); design: species or system guinea-pig (male Hartley); details: for IC50: read-out: PCP RECEPTOR IC50
Method: as §1, §2, §3
Programs in Biomed. 17:107 (1983)].

[1] = Table 1, mean ± error (n), read-out: SIGMA RECEPTOR IC50
[2] = Table 1, slope of dose response curve
[3] = SIGMA RECEPTOR IC50, Table 1, mean ± error (n)
[4] = Table 2, aryl ring substituents, read-out: SIGMA RECEPTOR IC50
[5] = Table 2, aryl ring substituents

T1 sequence (Q60492 whole entry): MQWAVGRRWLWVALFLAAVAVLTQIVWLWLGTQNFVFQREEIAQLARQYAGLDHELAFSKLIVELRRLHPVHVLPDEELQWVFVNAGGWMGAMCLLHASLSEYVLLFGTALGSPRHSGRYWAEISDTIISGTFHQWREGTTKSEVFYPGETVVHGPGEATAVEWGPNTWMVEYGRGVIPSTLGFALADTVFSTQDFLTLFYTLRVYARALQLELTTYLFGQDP

## C=CCN1CCC2(C)c3cc(O)ccc3CC1C2C (stereo not shown) [N-allylnormetazocine]
σ receptors
  affinity / binding at σ receptors (in words): bind to σ receptors

## CCCN1CCC[C@H](c2cccc(O)c2)C1 [(+)-3-PPP, (+)-3-(3-hydroxyphenyl)-N-(1-propyl)piperidine]
σ receptors
  affinity / binding at σ receptors (in words): bind to σ receptors

## CC1C2Cc3ccc(O)cc3C1(C)CCN2CC1CC1 (stereo not shown) [cyclazocine, 3-(cyclopropylmethyl)-1,2,3,4,5,6-hexahydro-6,11-dimethyl-2,6-methano-3-benzazocin-8-ol]
σ receptors
  affinity / binding at σ receptors (in words): bind to σ receptors

## C=CCN1CC[C@@]23CCCC[C@@H]2[C@@H]1Cc1ccc(O)cc13 [dextrallorphan]
σ receptors
  affinity / binding at σ receptors (in words): bind to σ receptors

## CC[N+](C)(CC)CCOC(=O)C1(c2ccccc2)CCCCC1 [Compound 16]
SIGMA RECEPTOR
  potency at σ receptors (in words): σ receptor potency increased; also recorded: effectively reversed the potency for σ receptors
SIGMA RECEPTOR; [1]
  IC50: 2230 nM
SIGMA RECEPTOR; [2]
  SIGMA RECEPTOR SLOPE: 0.86 ± 0.07
PCP RECEPTOR
  potency at PCP receptors (in words): inactive in the PCP assay; also recorded: did not increase potency for PCP receptors
PCP RECEPTOR; Table 1, mean ± error (n)
  IC50: > 25 µM

## CCN(CC)C1(c2ccccc2)CCCCC1 [Compound 13, N,N-diethyl-1-phenylcyclohexylamine, reference compound]
SIGMA RECEPTOR; [3]
  IC50: 573 nM
SIGMA RECEPTOR; [2]
  SIGMA RECEPTOR SLOPE: 0.40 ± 0.07
PCP RECEPTOR; Table 1, mean ± error (n)
  IC50: 0.331 ± 0.034 µM

## COc1ccc(C2(CN(C)C)CCCCC2)cc1OC [Compound 43]
SIGMA RECEPTOR
  potency at σ receptors (in words): poor to reasonable potency at σ sites
  selectivity for σ receptors (in words): high selectivity for σ receptors
SIGMA RECEPTOR; Table 2
  SIGMA RECEPTOR SLOPE: 0.66 ± 0.13
SIGMA RECEPTOR; [4]
  IC50: 9050 nM
PCP RECEPTOR; [5]
  IC50: > 25 µM

## CN(C)C1(c2ccccc2)CCCCC1 [Compound 17, N,N-dimethyl-1-phenylcyclohexylamine, reference compound]
SIGMA RECEPTOR; [3]
  IC50: 1950 nM
SIGMA RECEPTOR; [2]
  SIGMA RECEPTOR SLOPE: 0.53 ± 0.05
PCP RECEPTOR; Table 1, mean ± error (n)
  IC50: 0.242 ± 0.008 µM

## COc1ccc(C2(CN3CCCCC3)CCCCC2)cc1 [Compound 27]
SIGMA RECEPTOR
  potency at σ receptors (in words): slightly lower σ receptor potencies
  selectivity for σ receptors (in words): substantially increases selectivity for σ receptors
SIGMA RECEPTOR; Table 2
  SIGMA RECEPTOR SLOPE: 0.69 ± 0.04
SIGMA RECEPTOR; [4]
  IC50: 221 nM
PCP RECEPTOR; [5]
  IC50: > 25 µM

## c1ccc(C2(CCN3CCCC3)CCCCC2)cc1 [Compound 7]
SIGMA RECEPTOR; [1]
  IC50: 141 nM
SIGMA RECEPTOR; [2]
  SIGMA RECEPTOR SLOPE: 1.22 ± 0.03
SIGMA RECEPTOR; relative to PCPY (5)
  increased potency for σ receptors: approximately 30 fold
PCP RECEPTOR
  potency at PCP receptors (in words): decreased the potency in the PCP receptor assay
PCP RECEPTOR; Table 1, mean ± error (n)
  IC50: 1.72 µM

## c1ccc(C2(CN3CCOCC3)CCCCC2)cc1 [Compound 11]
SIGMA RECEPTOR
  potency at σ receptors (in words): increased potency for σ receptors
SIGMA RECEPTOR; [1]
  IC50: 710 nM
SIGMA RECEPTOR; [2]
  SIGMA RECEPTOR SLOPE: 0.60 ± 0.03
SIGMA RECEPTOR; Table 2
  SIGMA RECEPTOR SLOPE: 0.60 ± 0.03
PCP RECEPTOR
  potency at PCP receptors (in words): inactive in the PCP receptor assay
PCP RECEPTOR; Table 1, mean ± error (n)
  IC50: > 25 µM
PCP RECEPTOR; [5]
  IC50: > 25 µM

## CC(C)=CCN1CCC2(C)c3cc(O)ccc3CC1C2C (stereo not shown) [pentazocine, 2-dimethylallyl-5,9-dimethyl-2-hydroxy-benzomorphan]
σ receptors
  affinity / binding at σ receptors (in words): bind to σ receptors

## c1ccc(C2(CN3CCCCC3)CC2)cc1 [Compound 45]
SIGMA RECEPTOR; Table 3
  SIGMA RECEPTOR SLOPE: 0.83 ± 0.19
SIGMA RECEPTOR; Table 3, cycloalkyl ring size, read-out: SIGMA RECEPTOR IC50
  IC50: 5590 nM
PCP RECEPTOR; Table 3, cycloalkyl ring size
  IC50: 8.84 µM

## C[N+](C)(C)CCOC(=O)C1(c2ccccc2)CCCCC1 [Compound 20]
SIGMA RECEPTOR; [1]
  IC50: 12300 nM
SIGMA RECEPTOR; [2]
  SIGMA RECEPTOR SLOPE: 1.22 ± 0.15
PCP RECEPTOR
  potency at PCP receptors (in words): inactive in the PCP assay; also recorded: did not increase potency for PCP receptors
PCP RECEPTOR; Table 1, mean ± error (n)
  IC50: > 25 µM

## COc1cccc(C2(CN3CCCCC3)CCCCC2)c1 [Compound 26]
SIGMA RECEPTOR
  potency at σ receptors (in words): slightly lower σ receptor potencies
  selectivity for σ receptors (in words): substantially increases selectivity for σ receptors
SIGMA RECEPTOR; Table 2
  SIGMA RECEPTOR SLOPE: 0.74 ± 0.07
SIGMA RECEPTOR; [4]
  IC50: 326 nM
PCP RECEPTOR; [5]
  IC50: > 25 µM

## CN(C)CC1(c2cccc(O)c2)CCCCC1 [Compound 40]
SIGMA RECEPTOR; Table 2
  SIGMA RECEPTOR SLOPE: 0.61 ± 0.01
SIGMA RECEPTOR; [4]
  IC50: 10100 nM
PCP RECEPTOR; [5]
  IC50: > 25 µM

## CCN(CC)CC1(c2ccc([N+](=O)[O-])cc2)CCCCC1 [Compound 39]
SIGMA RECEPTOR; Table 2
  SIGMA RECEPTOR SLOPE: 0.44 ± 0.01
SIGMA RECEPTOR; [4]
  IC50: 304 nM
PCP RECEPTOR; [5]
  IC50: > 25 µM

## O=[N+]([O-])c1ccc(C2(CN3CCCC3)CCCCC2)cc1 [Compound 31]
SIGMA RECEPTOR
  potency at σ receptors (in words): somewhat potent
  selectivity for σ receptors (in words): very selective for σ receptors
SIGMA RECEPTOR; Table 2
  SIGMA RECEPTOR SLOPE: 0.65 ± 0.05
SIGMA RECEPTOR; [4]
  IC50: 282 nM
PCP RECEPTOR
  potency at PCP receptors (in words): inactive at PCP sites
PCP RECEPTOR; [5]
  IC50: > 25 µM

## COc1ccc(C2(CN3CCCC3)CCCCC2)cc1OC [Compound 35]
SIGMA RECEPTOR
  potency at σ receptors (in words): poor to reasonable potency at σ sites
  selectivity for σ receptors (in words): high selectivity for σ receptors
SIGMA RECEPTOR; Table 2
  SIGMA RECEPTOR SLOPE: 0.66 ± 0.07
SIGMA RECEPTOR; [4]
  IC50: 1320 nM
PCP RECEPTOR; [5]
  IC50: > 25 µM

## Clc1cccc(C2(CN3CCCCC3)CCCCC2)c1 [Compound 25]
SIGMA RECEPTOR
  potency at σ receptors (in words): most potent at σ receptors
  selectivity for σ receptors (in words): least specific
SIGMA RECEPTOR; Table 2
  SIGMA RECEPTOR SLOPE: 0.69 ± 0.05
SIGMA RECEPTOR; read-out: IC50 at σ receptors
  IC50: 71 nM
PCP RECEPTOR
  potency at PCP receptors (in words): showed some potency at PCP receptors
PCP RECEPTOR; [5]
  IC50: 1.83 µM

## Clc1cccc(C2(CN3CCCC3)CCCCC2)c1 [Compound 32]
SIGMA RECEPTOR; Table 2
  SIGMA RECEPTOR SLOPE: 0.73 ± 0.16
SIGMA RECEPTOR; [4]
  IC50: 248 nM
PCP RECEPTOR; [5]
  IC50: 0.867 ± 0.009 µM
